From patent publication US20240327427A1, “NEW COMPOUNDS FOR THE TREATMENT OF ALZHEIMER'S DISEASE” (Icahn School of Medicine at Mount Sinai, priority 2020, published 2024)
Entries after “also recorded” stand apart in the source; their conditions may differ.

Columns and labels:
Type in all cases: cell-based, human
ATP6V1A [1] = test: ATP6V1A mRNA expression in drug-treated NPCs (LINCS profiles); conditions: drug-treated vs DMSO-treated, LINCS data
From the text: Compounds were screened for drugs that can rescue the in vitro and in vivo phenotypes arising from ATP6V1A deficits. Using their drug repositioning tool, Ensemble of Multiple Drug Repositioning Approaches (EMUDRA) (Zhou et al., 2018b), the inventors matched the disease signature from the BM36-PHG region and the signatures of 3,629 drugs tested in the NPCs in the Library of Integrated Network-based Cellular Signatures (LINCS) project (FIG. 6A). The inventors further prioritized candidate drugs by their potential to increase the mRNA expression of ATP6V1A in the NPCs.
To identify existing drugs that can restore the molecular expression change in the LOAD brains, the inventors performed a drug repositioning analysis using EMUDRA, which provides a novel computational algorithm to match disease signatures and drug-induced signatures. The inventors downloaded drug-treated gene expression profiles (level 3 data of quantile-normalized and log 2 transformed expression levels from human iPSC-derived neural progenitor cells (NPCs) from the Library of Integrated Network-Based Cellular Signatures (LINCS) program. After removing probes sets mapping to multiple genes or without known gene annotation, the remaining data were adjusted for batch effects using linear regression. The mean expression level of multiple probe sets that match to the same gene was used as the expression level for that gene. For each drug, the applied drug signature was the transcriptome-wide expression difference between drug-treated and DMSO-treated gene expression profiles. The inventors matched each of the drug signatures to the LOAD signature using EMUDRA to find drugs that could reverse the LOAD signature. […] In total, 3,629 drug signatures were analyzed and ranked. The inventors further prioritized the top-ranked drugs that can increase ATP6V1A mRNA expression in the NPCs.

[2] = test system: hiPSC-derived NGN2 neurons; test: Multi-electrode array (MEA) neuronal activity
Procedure: To evaluate electrical activity of NGN2-neurons by MEA, density-matched isogenic NGN2-neuronal populations, co-cultured with pHAs, were prepared as described above. Specifically, at day 3, pHAs were split as 17,000 cells/well in a Matrigel-coated 48W MEA plate (Axion Biosystems, M768-tMEA-48W) and maintained as above. At day 7, NGN2-neurons were detached, spun down and seeded on the pHA culture. Outer space of each well in the plate was filled up with autoclaved/deionized water to minimize the evaporation of marginal wells (“edge effect”) during long-term culture. Half volume of neuronal medium (supplemented with 2% FBS) was replaced with fresh medium including 200 nM Ara-C from day 9 until the end of MEA recording. Electrical activity of neurons was recorded daily during day 14-24. On the recording day, the plate was loaded into the Axion Maestro MEA reader (Axion Biosystems). Recording was performed via AxiS 2.4 for 10 mins. Quantitative analysis of the recording was exported as a Microsoft excel sheet. Data were analyzed using GraphPad PRISM 6 software.
(§1) A stock solution of LQ081-166 (molecular weight: 452.63) at 3 mM is prepared in dimethyl sulfoxide (DMSO). Once prepared, aliquot the stock solution into 100 μL amounts and store at −80° C. Avoid repeated freeze-thaw cycles. The stock is diluted 1000× into neuronal medium to obtain 3 μM for assays. After 24-hour treatment, RNA was extracted from cells for quantitative PCR. In the MEA assay, LQ081-166 was added on neuronal differentiation day 14. Replace with medium containing drug or vehicle every 2-3 days until the final recording day.

ATP6V1A [3] = test: ATP6V1A mRNA (qRT-PCR) and protein (western blot) levels in hiPSC-derived NGN2 neurons (iNs); conditions: for transcriptional and translational levels of ATP6V1A: D21 iNs, concentrations between 1 and 30 μM
Procedure: To verify this discovery, the inventors measured the transcriptional and translational levels of ATP6V1A in D21 iNs treated with the 3 HDAC inhibitors at a series of concentrations between 1 and 30 μM.
CRISPR inhibition (CRISPRi) was used to repress endogenous ATP6V1A in hiPSC-derived NGN2 neurons. […] Next, the inventors investigated whether LQ081-166 rescued the phenotypes of ATP6V1A deficit and reduced neuronal activity.
Quantitative reverse transcription PCR (qRT-PCR) was performed as previously described. Specifically, cell cultures were harvested with Trizol and total RNA extraction was carried out following the manufacturer's instructions. Quantitative transcript analysis was performed using a QuantStudio 7 Flex Real-Time PCR System with the Power SYBR Green RNA-to-Ct Real-Time qPCR Kit (all Thermo Fisher Scientific). Total RNA template (25 ng per reaction) was added to the PCR mix, including primers listed below. qPCR conditions were as follows; 48° C. for 30 min, 95° C. for 10 min followed by 40 cycles (95° C. for 15 s, 60° C. for 60 s). All qPCR data is collected from at least 3 independent biological replicates of one experiment. Data analyses were performed using GraphPad PRISM 6 software.
Cells were rinsed with ice-cold phosphate-buffered saline (PBS), pelleted, and lyzed in RIPA Lysis and Extraction Buffer (Thermo Fisher Scientific, #89900) containing Halt™ Protease and Phosphatase Inhibitor Cocktail (Thermo Fisher Scientific, #78440). Alternatively, MSBB BM36 brain samples were homogenized with similar methods. Samples were sonicated for 1 minute then centrifuged at 13,000× rpm for 10 min. The supernatant was collected, and total protein concentration was determined using Quick Start™ Bradford Protein Assay (Bio-Rad, 5000201) following the manufacturer's instructions.
Images were captured and quantified using the Odyssey® Imaging Systems (LI-COR. Inc.).
as §1

ATP6V1A [4] = test: ATP6V1A gene expression-based compound screening (qRT-PCR) in hiPSC-derived NPCs; conditions: for ATP6V1A mRNA level / gene expression: hiPSC-derived NPCs, qRT-PCR vs DMSO
From the text: Thirty nine new compounds were synthesized by chemical synthesis and evaluated for their capability to elevate the mRNA level of ATP6V1A and the neuronal activities in hiPSC-derived NPCs. […] These disclosures indicate that the chemical structure to the right in LQ081-166 has a structure-activity relationship necessary for ATP6V1A activation.
To identify useful drugs for targeting this novel therapeutic target, the inventors synthesized 39 new compounds by chemical synthesis and evaluated their capability of elevating the mRNA level of ATP6V1A and neuronal activity in hiPSC-derived NPCs.
To improve the potency and efficacy of the drugs, an additional 18 derivatives based on LQ081-166 were synthesized (FIG. 7B). […] The inventors determined that the thioester and benzyl group in LQ081-166 has a structure-activity relationship necessary for ATP6V1A activation.
FIG. 7. ATP6V1A gene expression-based compounds screening. (A) qRT-PCR analysis (N=3-12) to determine the relative changes in ATP6V1A gene expression after exposure to 40 chemical compounds. ****, p<0.0001 (one-way ANOVA). DMSO serves as vehicle control. (B) Molecular modification of LQ081-166 and chemical structure of LQ108-32. (C) qRT-PCR analysis of relative ATP6V1A gene expression after exposure to LQ081-166 derivatives. Grey scale bars in the graph are associated with the categories of molecular modification. Note that LQ108-51/52/53 is a small pool of three LQ081-166 derivatives. (D) Effects of LQ081-166 at 0.3, 1, 3, and 10 μM on ATP6V1A mRNA level after 24-h exposure. *, p<0.05; **, p<0.01 (one-way ANOVA).
Quantitative reverse transcription PCR (qRT-PCR) was performed as previously described. […] Quantitative transcript analysis was performed using a QuantStudio 7 Flex Real-Time PCR System with the Power SYBR Green RNA-to-Ct Real-Time qPCR Kit (all Thermo Fisher Scientific). […]
A stock solution of LQ081-166 (molecular weight: 452.63) at 3 mM is prepared in dimethyl sulfoxide (DMSO). […] After 24-hour treatment, RNA was extracted from cells for quantitative PCR. […]

| SMILES | ATP6V1A (log2FC) (ATP6V1A [1]) | other results |
| --- | --- | --- |
| CC[C@H]1CN2CCc3cc(OC)c(OC)cc3C2C[C@@H]1CC1NCCc2cc(OC)c(OC)cc21 (stereo partly shown) [BRD-A25687296] | 2.37 log2FC |  |
| C[C@@H]1O[C@@H](O[C@@H]2C=C3CCC4C(CC[C@]5(C)[C@@H](c6ccc(=O)oc6)CC[C@]45O)[C@@]3(C)CC2)[C@H](O)[C@H](O)[C@H]1O (stereo partly shown) [BRD-A34806832] | 1.49 log2FC |  |
| CC1CC(C)C(=O)C(C(O)CC2CC(=O)NC(=O)C2)C1 (stereo not shown) [BRD-A62184259] | 1.46 log2FC |  |
| C[C@@H]1C[C@@H]([C@H](O)CC2CC(=O)NC(=O)C2)C(=O)[C@@H](C)C1 [BRD-K36055864] | 2.00 log2FC |  |
| C[C@@H]1CN([C@@H](C)CO)C(=O)c2cccc(NC(=O)c3ccc(-c4nccs4)cc3)c2O[C@@H]1CN(C)Cc1ccc(C(=O)Nc2ccccc2N)cc1 [BRD-K56196992] | 1.47 log2FC |  |
| Nc1ccccc1NC(=O)c1ccc(CNC(=O)OCc2cccnc2)cc1 [BRD-K77908580] | 1.54 log2FC |  |
| CC[C@H]1CN2CCc3cc(OC)c(OC)cc3[C@@H]2C[C@@H]1C[C@H]1NCCc2cc(O)c(OC)cc21 [BRD-K80348542] | 1.09 log2FC |  |
| C[C@]12CC[C@H]3[C@@H](CC[C@]4(O)C[C@@H](O)CC[C@]34C=O)[C@@]1(O)CC[C@@H]2C1=CC(=O)OC1 [BRD-K84595254] | 2.98 log2FC |  |
| O=C(CCCCCCSC(=O)CCc1ccccc1)Nc1nc(-c2ccccc2)cs1 [LQ081-166, S-(7-oxo-7-((4-phenylthiazol-2-yl)amino)heptyl) 3-phenylpropanethioate] |  | restoration of neuronal activity (MEA) ([2]; ATP6V1A KD neurons, regardless of presence/absence of Aβ exposure, 3 μM): partially restoring neuronal activity; neuronal activity (MEA) ([2]; NGN2 neurons, 3 μM LQ081-166): potent activator of neuronal activity; ATP6V1A mRNA level (ATP6V1A [3]; ATP6V1A KD hiPSC-derived NGN2 neurons): restores ATP6V1A mRNA level; ATP6V1A mRNA level (ATP6V1A [3]; NGN2 neurons, 3 μM, 24 hours): significantly increased; dose dependence of effect on ATP6V1A mRNA level (ATP6V1A [4]; 0.3, 1, 3 and 10 μM, 24-h exposure): dose-dependent effect; ATP6V1A mRNA level / gene expression (ATP6V1A [4]): most significantly increased |
| O=C(CCCCCCC(=O)SCCc1ccccc1)Nc1nc(-c2ccccc2)cs1 [LQ108-32, S-phenethyl 8-oxo-8-((4-phenylthiazol-2-yl)amino)octanethioate] |  | ATP6V1A mRNA level / gene expression (ATP6V1A [4]; listed as LQ081-32): did not affect; also recorded: inability to affect |
| Nc1ccccc1NC(=O)c1ccc(CNC(=O)OCc2cccnc2)cc1 [MS-275] |  | transcriptional and translational levels of ATP6V1A (ATP6V1A [3]): ineffective |
| O=C(CCCCCCC(=O)Nc1ccccc1)NO [SAHA] | 0.77 log2FC | transcriptional and translational levels of ATP6V1A (ATP6V1A [3]): ineffective |
| CCC(=O)CCCCC[C@@H]1NC(=O)[C@H]2CCCCN2C(=O)[C@H]([C@@H](C)CC)NC(=O)[C@H](Cc2cn(OC)c3ccccc23)NC1=O [apicidin] | 0.99 log2FC |  |
| CN(C)c1ccc(C(=O)NCCCCCCC(=O)NO)cc1 [m-344] | 0.84 log2FC |  |
| O=C(CCCCCN1C(=O)c2cccc3cccc(c23)C1=O)NO [scriptaid] | 0.78 log2FC |  |
| CC(/C=C/C(=O)NO)=C\[C@@H](C)C(=O)c1ccc(N(C)C)cc1 [trichostatin a] | 0.61 log2FC |  |
